The nature of data set [1]: In vivo pharmacokinetic test in mice. Particulars: male ICR mice, gavage administration 10 mg/kg. As to the method: Test animals: healthy adult male ICR mice (weighing 30-40 g, 12 mice, intravenous injection group mice drinking water and diet ad libitum, gavage group fasting overnight, drinking water and diet ad libitum 4 h after administration), provided by Beijing Vital River Laboratory Animal Co. LTD;
Administration method and dosage: ICR mice were administered via caudal vein administration (2 mg/kg, 5% DMSO, pH 4.5 20% Captisol) and gavage administration (10 mg/kg, 5% DMSO, pH 4.5 20% Captisol).
Blood sampling: Animals meeting the experimental requirements were selected prior to administrating, weighed and labeled. Mice were bound prior to blood sampling, and each administrated mice was bled at a predetermined time point (caudal vein administration: blood samples were collected at 0.083 h, 0.25 h, 0.5 h, 1 h, 2 h, 4 h, 6 h, 7.5 h and 24 h after administration, totally 9 time points; gavage administration: blood samples were collected at 0.083 h, 0.25 h, 0.5 h, 1 h, 2 h, 4 h, 6 h, 7.5 h and 24 h after administration, totally 9 time points), and about 100 µL blood samples were collected through the orbit. The blood was transferred to a 1.5 mL test tube pre-added with K2EDTA, centrifuged for 4 min (8000 rpm, 4°C), and the plasma was removed. The whole process was completed within 15 min after blood collection. All samples were stored in a refrigerator at -20°C until sample analysis. LC/MS/MS method was used to determine drug concentrations.

Data set [2] concerns MV4 -11 acute myeloid leukemia. Kind of data set: In vivo pharmacodynamic experiment, MV4-11 subcutaneous xenograft. The arrangement: species or system BALB/c nude mice. Particulars: Oral, Once daily. As to the method:
In vivo pharmacodynamic experiments were performed on BALB/c nude mice subcutaneously implanted with MV4 -11 acute myeloid leukemia […] xenograft (CDX) based on human tumor cell lines.
Protocol: BALB/c nude mice, female, 6-10 weeks old, weighing approximately 20-23 grams, were maintained in a special pathogen-free environment and in individual ventilated cages (5 mice per cage, 2 cages of 10). All cages, bedding and water were disinfected prior to use. All animals had free access to standard certified commercial laboratory diets. […] Each mouse was implanted with tumor cells subcutaneously in the right flank (1×10^7 0.1 ml+Matrigel 0.1 ml) for tumor growth. When the average tumor volume reached about 165 cubic mm, randomization was performed according to body weight and tumor volume, and administration was started. The test compound was administered orally by gavage daily. Antitumor efficacy was determined by dividing the average tumor increase volume of animals treated with the compound by the average tumor increase volume of untreated animals.
Tumor volume was measured twice weekly with a two-dimensional caliper, and volumes were measured in cubic millimeters. Tumor volume TV=0.5a×b^2. Wherein, a is the long diameter of the tumor and b is the short diameter of the tumor.
T/C(%) is the percentage of the relative tumor volume (RTV) between the treatment group and the control group at a certain time point. The calculation Formula is as follows: T/C% = TRTV/CRTV×100% (TRTV: mean RTV of treatment group; CRTV: mean RTV of vehicle control group; RTV=Vt/V0, V0 is tumor volume of the animal at grouping, Vt is tumor volume of the animal after treatment). mpk is mg/kg body weight.
Body weight change (%) of tumor-bearing animals was calculated as follows: (body weight at measurement - body weight at grouping)/body weight at grouping × 100.

Data set [3] is described as follows: Rough solubility in pH 4.5 and pH 6.8 buffers at room temperature. The data set is classed as physicochemical.
Data set [4] can be described thus: Solubility in 0.1 mol/L hydrochloric acid and pH 6.8 phosphate buffer, 24 h at 37°C. Particulars: for solubility: 1440 min. The class given is physicochemical.
A short description of data set [5]: Stability test: changes in crystal form (XRPD) under high temperature and accelerated conditions. Particulars: for changes in crystal form: 60°C (high temperature) and 40°C to 75% RH (accelerated), day 7, day 20, day 30, day 60. The class given is physicochemical. The protocol: X-ray powder diffraction (XRPD): in the present disclosure, the above crystalline or amorphous powder X-ray diffraction pattern was obtained by a known method in the art using an ARL Equinox3000 X-ray powder diffraction analyzer.
(§1) The changes in crystal form were detected at day 7, day 20, day 30, and day 60, respectively. […] (2) About 40 mg of phosphate crystal form I (prepared with reference to Example 1 of the present application) was weighed into a glass vial , and ethanol (1 mL) was added thereto, the glass vial was sealed and shaken at 50°C and 150 r/min for seven days, then centrifuged to collect the solid and the solvent was evaporated. […] Samples were taken and the related substances were determined. […]

Data set [6] is described as follows: Crystal form conversion: suspension shaking in ethanol. The class given is physicochemical. Particulars: ethanol (1 mL), sealed, shaken at 50°C and 150 r/min for seven days. As to the method:
as §1

Data set [7] can be described thus: Chemical stability: related substances after 80°C for one week with water added. The data set is classed as physicochemical. Particulars: for Phosphate content (80°C, 7 d): 25 mg sample with 5 mg water, oven at 80°C.
Data set [8] in a line: Dynamic vapor sorption (DVS) measurement. The class given is physicochemical. Particulars: for weight gain due to moisture absorption: DVS, 80% RH, 25°C; for hygroscopicity: from DVS weight gain at 80% RH. The protocol:
Dynamic vapor sorption (DVS) curve: a dynamic vapor sorption curve was collected on a DVS Intrinsic of SMS (Surface Measurement Systems). The relative humidity at 25°C was calibrated using the deliquescent points of LiCl, Mg(NO3)2 and KCl.
(§2) Chinese Pharmacopoeia 2020, volume IV, 9103 Guidelines for Hygroscopicity Test of Drugs specifies the definition of hygroscopicity characteristics and hygroscopicity weight gain: (1) deliquescence: absorbing sufficient water to form a liquid; (2) extremely hygroscopicity: hygroscopicity weight gain of not less than 15%; (3) hygroscopicity: hygroscopicity weight gain of less than 15% but not less than 2%; (4) slightly hygroscopicity: hygroscopicity weight gain of less than 2% but not less than 0.2%; (5) no or almost no hygroscopicity: moisture gain is less than 0.2%.

Another data set deals with T1, CDK9/CycT (Homo sapiens, UniProt P50750).
T1 construct: purchased Carna Bioscience 04-110
Kind of data set: LANCE Ultra kinase activity inhibition test, CDK9. The data set is classed as biochemical. Particulars: ATP 10 µM. An excerpt: In the following LANCE Ultra test method, kinase reagents were purchased from Carna Bioscience, reaction substrates and detection reagents were purchased from Perkin Elmer, and the remaining reagents were purchased from Thermo scientific.
The LANCE Ultra method was used to determine the inhibitory effect of the test substance on the kinase activity of CDK1/CycB (Carna bioscience, #04-102), CDK2/ CycA (Carna bioscience, #04-103), CDK9/CycT (Carna bioscience, #04-110).
Each kinase in the test included three test groups: background group (Blank), non-inhibition group (PC) and compound test group (Test). […]
After the addition of the test solution, it was placed on a shaker and incubated at room temperature for 1 h in the dark. […] The 665 nm/615 nm values (hereinafter referred to as the Ratio value) were calculated for all groups, and the inhibition rate was calculated based on the Ratio value of each group; 2. […] XLFIT 5.0 software (IDBS, UK) was used for fitting, with logarithmic values of compound concentrations as the X axis and inhibition rates as the Y axis, and IC50 values of compounds were calculated using a four-parameter model.

The nature of the next data set: physchem. Particulars: water.
Data set [9] is described as follows: Hygroscopicity test according to Chinese Pharmacopoeia 2020, volume IV, 9103. The data set is classed as physicochemical.
From the text: as §2

The mark [10] stands for this setting: listed as phosphate crystal form I of the compound of Formula (I).
Where [11] appears, read: listed as phosphate crystal form II of the compound of Formula (I).

The T/C is the result in the treated group divided by that in the control group, in per cent. By solubility is commonly meant the dissolved amount per volume that the medium holds. By IC50 is commonly meant the concentration at which inhibition is half-maximal. Read a low IC50 as greater potency.

T1 sequence (P50750 whole entry): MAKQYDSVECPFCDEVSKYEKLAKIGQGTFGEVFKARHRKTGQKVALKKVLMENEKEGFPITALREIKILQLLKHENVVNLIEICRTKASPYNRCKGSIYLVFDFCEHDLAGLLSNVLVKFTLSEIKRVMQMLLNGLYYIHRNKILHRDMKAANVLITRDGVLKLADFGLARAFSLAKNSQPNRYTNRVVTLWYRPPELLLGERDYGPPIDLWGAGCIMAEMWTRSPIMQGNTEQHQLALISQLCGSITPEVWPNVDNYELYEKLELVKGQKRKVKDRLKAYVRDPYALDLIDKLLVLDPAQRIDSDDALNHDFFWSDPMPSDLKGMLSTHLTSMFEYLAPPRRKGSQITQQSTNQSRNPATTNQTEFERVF
T1 sequence (O60563 whole entry partner): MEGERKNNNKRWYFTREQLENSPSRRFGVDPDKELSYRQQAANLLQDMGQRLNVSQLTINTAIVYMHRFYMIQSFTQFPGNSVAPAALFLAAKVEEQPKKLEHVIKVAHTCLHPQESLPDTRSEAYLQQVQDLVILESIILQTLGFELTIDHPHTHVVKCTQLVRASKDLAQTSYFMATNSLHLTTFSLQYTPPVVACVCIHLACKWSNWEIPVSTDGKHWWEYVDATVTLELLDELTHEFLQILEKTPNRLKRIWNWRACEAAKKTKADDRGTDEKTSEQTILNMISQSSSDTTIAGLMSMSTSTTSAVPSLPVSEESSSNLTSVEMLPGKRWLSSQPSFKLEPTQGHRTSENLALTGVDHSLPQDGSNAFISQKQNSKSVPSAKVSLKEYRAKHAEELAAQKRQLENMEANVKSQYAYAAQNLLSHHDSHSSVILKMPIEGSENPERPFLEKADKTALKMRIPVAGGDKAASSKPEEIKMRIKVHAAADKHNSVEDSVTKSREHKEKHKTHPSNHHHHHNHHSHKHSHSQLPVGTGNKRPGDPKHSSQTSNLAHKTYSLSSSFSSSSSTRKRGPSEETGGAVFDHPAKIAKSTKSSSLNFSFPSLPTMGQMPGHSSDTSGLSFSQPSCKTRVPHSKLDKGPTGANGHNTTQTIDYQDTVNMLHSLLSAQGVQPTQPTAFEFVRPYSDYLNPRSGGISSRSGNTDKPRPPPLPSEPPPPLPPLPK

With `CCC(CC)c1cc(N[C@H]2CC[C@H](N)C2)n2nccc2n1` [Compound D, reference compound], in data set [1], the “Area under the curve for oral administration AUC0-t” value worked out at 1191 ng·h/mL and the “Maximum oral plasma concentration Cmax” value was found to be 433 ng/mL. In data set [2] (12.5 mpk), the Mean tumor weight came to 0.35 g and the T/C is recorded as 45.04%. In [2] (25 mpk), this compound returned a Mean tumor weight of 0.02 g and a T/C of 2.04%.

On to `C[C@H](c1cc(N[C@H]2CC[C@H](N)C2)n2nccc2n1)C1CCC1` [Phosphate crystal form I], for which the solubility in [3] (acetate buffer, pH 4.5, rough solubility, pH 4.5 buffer (acetic acid-sodium acetate system), read-out: Solubility in pH 4.5 buffer) is no more than 33 mg/mL. In addition, the solubility in data set [3] (phosphate buffer, pH 6.8, rough solubility, pH 6.8 buffer (sodium dihydrogen phosphate-sodium hydroxide system), read-out: Solubility in pH 6.8 buffer) was no more than 24.5 mg/mL. The compound further had a solubility at 24 h in data set [4] (0.1n hcl) of 22.5 mg/mL. This compound also registered a solubility at 24 h in data set [4] (phosphate buffer, pH 6.8, pH 6.8 phosphate buffer) of 22.5 mg/mL. In addition, the “changes in crystal form” value in data set [5] was “no obvious changes”. The “change of XRPD pattern” value in data set [5] (high temperature conditions, 7 days and 30 days, Figure 16) is “no obvious change”. Also, the “crystal form of the obtained solid (XRPD)” value in [6] is recorded as “phosphate crystal form II”. In addition, in data set [7], the “Phosphate content (0 d)” value was 99.64 and the “Phosphate content (80°C, 7 d)” value is on record as 98.66. Besides, in data set [8] (setting [10]), the “weight gain due to moisture absorption” value was found to be 9% and the hygroscopicity result is recorded as “hygroscopicity (hygroscopicity weight gain of less than 15% but not less than 2%)”.

`C[C@H](c1cc(N[C@H]2CC[C@H](N)C2)n2nccc2n1)C1CCC1` [The compound of Formula (I), (1S,3S)-N1-(5-((S)-1-cyclobutylethyl)pyrazolo[1,5-a]pyrimidin-7-yl)cyclopentan-1,3-diamine]: the 50% inhibitory concentration (IC50) on CDK9/CycT was 0.012 µM. In addition, the AUC(0-t) in data set [1] (mouse, plasma, po, read-out: Area under the curve for oral administration AUC0-t) was 2960 ng·h/mL. Also, the Cmax in data set [1] (mouse, plasma, po, read-out: Maximum oral plasma concentration Cmax) turned out to be 379 ng/mL. Further, in data set [2] (12.5 mpk), the Mean tumor weight came out at 0.17 g and the T/C came out at 21.50%. In [2] (25 mpk), this compound showed a Mean tumor weight of 0.01 g and a T/C of 1.40%.

Regarding `C[C@H](c1cc(N[C@H]2CC[C@H](N)C2)n2nccc2n1)C1CCC1` [phosphate], the solubility in the data set “physchem” was no more than 26.6 mg/mL.

On to `C[C@H](c1cc(N[C@H]2CC[C@H](N)C2)n2nccc2n1)C1CCC1` [L-tartrate crystal form I], for which the “Solubility in pH 4.5 buffer” value in [3] (rough solubility, pH 4.5 buffer (acetic acid-sodium acetate system)) is no more than 43.3 mg/mL. Also, in [3] (rough solubility, pH 6.8 buffer (sodium dihydrogen phosphate-sodium hydroxide system)), the “Solubility in pH 6.8 buffer” value is given as no more than 21.8 mg/mL. Moreover, the “changes in crystal form” value in data set [5] was “no obvious changes”. Besides, the “change of XRPD pattern” value was “no obvious change” in data set [5] (accelerated conditions (40°C-75% RH), 7 days and 2 months (60 days), FIG. 15); “no obvious change” in [5] (high temperature conditions (60°C), 7 days and 2 months (60 days)).

Take `C[C@H](c1cc(N[C@H]2CC[C@H](N)C2)n2nccc2n1)C1CCC1` [L-tartrate]: in [9], the hygroscopicity entry is “slight hygroscopicity”.

For the compound `C[C@H](c1cc(N[C@H]2CC[C@H](N)C2)n2nccc2n1)C1CCC1` [Phosphate crystal form II], the solubility in [4] (0.1N HCl) amounted to 39.14 mg/mL. Also, the solubility in data set [4] (pH 6.8 phosphate buffer) was 33.63 mg/mL. Moreover, in [5], the “changes in crystal form” value was “no obvious changes”. In addition, in data set [7], the “Phosphate content (0 d)” value amounted to 99.64 and the “Phosphate content (80°C, 7 d)” value is 98.73. Moreover, in data set [8], the “weight gain due to moisture absorption” value amounted to 0.45% and the hygroscopicity entry is recorded as “slight hygroscopicity”. In [8] (setting [11]), the “weight gain due to moisture absorption” value is given as 0.45% and the hygroscopicity result is given as “slight hygroscopicity”.

For the origin of these results see patent EP4559916A1, “PHARMACEUTICALLY ACCEPTABLE SALT AND POLYMORPH OF SUBSTITUTED PYRAZOLO[1,5-A]PYRIMIDIN-7-AMINE DERIVATIVE AND USE THEREOF” (Shanghai Haiyan Pharmaceutical Technology Co., Ltd., priority 2022, dated 2024).
